17 compounds from US20220002279A1, “NOVEL IMIDAZOLE DERIVATIVE” (priority 2018, published 2022) can be followed below.

For experiment [1], the target named is T1, Escherichia coli LpxC enzyme (Escherichia coli, UniProt P0A725).
T1 construct: made in house; host or cells: Escherichia coli
T1 sequence (P0A725 1-305): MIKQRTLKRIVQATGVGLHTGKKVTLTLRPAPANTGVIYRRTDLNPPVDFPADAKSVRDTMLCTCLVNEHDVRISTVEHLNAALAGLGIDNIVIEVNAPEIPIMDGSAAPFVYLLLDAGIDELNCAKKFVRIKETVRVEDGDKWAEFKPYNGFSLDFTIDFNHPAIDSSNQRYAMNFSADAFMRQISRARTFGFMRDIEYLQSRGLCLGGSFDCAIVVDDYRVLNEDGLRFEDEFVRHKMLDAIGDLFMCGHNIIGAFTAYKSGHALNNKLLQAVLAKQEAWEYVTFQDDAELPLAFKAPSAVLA
Briefly: Inhibitory activity on Escherichia coli LpxC enzyme (fluorescamine method). Format: biochemical. Particulars: fluorescamine detection; 3.1 nmol/L enzyme, 20 μmol/L substrate, pH 6.5, 120 min; read-out: IC50 (inhibitory activity on Escherichia coli LpxC enzyme, Fluoresamine method). Here is the method: To assay the activity of Escherichia coli LpxC enzyme, LpxC was reacted with its substrate, UDP-3-O-(R-3-hydroxymyristoyl)-N-acetylglucosamine, and the amount of the reaction product was quantified by the amino groups present in the product
The reaction was terminated by the addition of 1.0 mg/mL-fluorescamine dissolved in a solvent obtained by mixing an equal amount of acetonitrile and dimethylformamide with the reaction mixture, and then, a 0.2 mol/L-sodium phosphate buffer solution (pH 8.0) was added thereto, and the amount of the reaction product was detected at an excitation wavelength/fluorescence wavelength=390 nm/495 nm. An inhibition curve was obtained by performing the aforementioned reaction in the presence of various concentrations of test compounds.

The subject of experiment [2] is Pseudomonas aeruginosa strain ATCC27853. The experiment can be described thus: Antimicrobial activity, MIC by broth microdilution. The class given is cell-based. The settings on record: ATCC27853, 18 h, cation-adjusted Mueller-Hinton broth, about 5×10^5 CFU/mL, 35° C., about 18 hours, read-out: MIC Pseudomonas aeruginosa ATCC27853. The method in brief:
(§1)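 MIC read by eye as the lowest drug level lacking visible growth after roughly 18 h at 35° C. Cells from heart infusion agar, set to McFarland 0.5 and diluted, were inoculated at about 5×10^5 CFU/mL into cation-adjusted Mueller-Hinton broth with compound, per adapted CLSI microdilution.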

Experiment [3] deals with Klebsiella pneumoniae strain ATCC13883. The experiment can be described thus: Antimicrobial activity, MIC by broth microdilution. The class given is cell-based. Particulars: ATCC13883, cation-adjusted Mueller-Hinton broth, about 5×10^5 CFU/mL, 35° C., about 18 hours, read-out: MIC Klebsiella pneumoniae ATCC13883. In outline:
as §1

The subject of experiment [4] is Escherichia coli strain ATCC25922. The experiment can be described thus: Antimicrobial activity, MIC by broth microdilution. Format: cell-based. The settings on record: ATCC25922, 18 h, cation-adjusted Mueller-Hinton broth, about 5×10^5 CFU/mL, 35° C., about 18 hours, read-out: MIC Escherichia coli ATCC25922. In outline: as §1

Values after ≈ are worked out from the molar mass of the structure shown. A value given as a limit tells only on which side of the number the result lay.

The term IC50 denotes the point on the concentration scale where inhibition reaches its midpoint. Broadly, the MIC is the lowest concentration found to suppress growth. As for `C[C@H](O)c1nccn1[C@H](CN)c1cc(-c2ccc(C#CC3CC3CO)cc2)on1` (relative stereo) [Compound 80, (1S)-1-(1-((1R)-2-amino-1-[5-(4-{[trans-2-(hydroxymethyl)cyclopropyl]ethynyl}phenyl)-1,2-oxazol-3-yl]ethyl}-1H-imidazol-2-yl)ethan-1-ol], in experiment [1], the IC50 came to 80.7 nM. Moreover, the MIC in experiment [2] stood at 4 µg/mL (≈ 10.2 µM); in experiment [3], 1 µg/mL (≈ 2.55 µM); in experiment [4] it was 0.25 µg/mL (≈ 0.637 µM).

As to `C[C@H](O)c1nccn1[C@H](CN(C)C)c1cc(-c2ccc(C#C[C@@H]3[C@H]4CN(CCO)C[C@@H]34)cc2)on1` [Compound 39, (1S)-1-(1-{(1R)-2-(Dimethylamino)-1-[5-(4-{[(1R,5S,6s)-3-(2-hydroxyethyl)-3-azabicyclo[3.1.0]hexan-6-yl]ethynyl}phenyl)-1,2-oxazol-3-yl]ethyl}-1H-imidazol-2-yl)ethan-1-ol], the IC50 in experiment [1] is 1820 nM. Moreover, the minimal inhibitory concentration (MIC) in experiment [2] was 8 µg/mL (≈ 16.8 µM); in experiment [3], 4 µg/mL (≈ 8.41 µM); in experiment [4], 2 µg/mL (≈ 4.21 µM).

For `C[C@H](O)c1nccn1Cc1cc(-c2ccc(C#C[C@@H]3[C@H]4CN(S(C)(=O)=O)C[C@@H]34)cc2)on1` [Compound 72, (1S)-1-(1-{[5-(4-{[(1R,5S,6s)-3-(Methanesulfonyl)-3-azabicyclo[3.1.0]hexan-6-yl]ethynyl}phenyl)-1,2-oxazol-3-yl]methyl}-1H-imidazol-2-yl)ethan-1-ol], the IC50 in experiment [1] stood at 112 nM. The MIC in experiment [2] is greater than 16 µg/mL; in experiment [3], 1 µg/mL (≈ 2.21 µM); in experiment [4], 0.5 µg/mL (≈ 1.1 µM).

Turning to `C[C@H](O)c1nccn1Cc1cc(-c2ccc(C#C[C@@H]3[C@H]4CN(CCCCC(=O)O)C[C@@H]34)cc2)on1` [Compound 93, 5-[(1R,5S,6s)-6-({4-[3-((2-[(1S)-1-hydroxyethyl]-1H-imidazol-1-yl}methyl)-1,2-oxazol-5-yl]phenyl}ethynyl)-3-azabicyclo[3.1.0]hexan-3-yl]pentanoic acid], in experiment [1], the IC50 came out at 371 nM. The MIC worked out at 8 µg/mL (≈ 16.9 µM) in experiment [2], 4 µg/mL (≈ 8.43 µM) in experiment [3] and 4 µg/mL (≈ 8.43 µM) in experiment [4].

Take `C[C@H](O)c1nccn1Cc1cc(-c2ccc(C#C[C@@H]3[C@H]4CN(C)C[C@@H]34)cc2)on1` [Compound 36, (1S)-1-(1-{[5-(4-{[(1R,5S,6s)-3-methyl-3-azabicyclo[3.1.0]hexan-6-yl]ethynyl}phenyl)-1,2-oxazol-3-yl]methyl}-1H-imidazol-2-yl)ethan-1-ol]: the IC50 in experiment [1] is 98.7 nM. Also, the MIC in experiment [2] worked out at 16 µg/mL (≈ 41.2 µM); in experiment [3] it was 1 µg/mL (≈ 2.57 µM); in experiment [4], 0.5 µg/mL (≈ 1.29 µM).

On to `C[C@H](O)c1nccn1[C@H](CO)c1cc(-c2ccc(C#C[C@@H]3[C@H]4CN(CCO)C[C@@H]34)cc2)on1` [Compound 96, (2S)-2-[5-(4-{[(1R,5S,6s)-3-(2-hydroxyethyl)-3-azabicyclo[3.1.0]hexan-6-yl]ethynyl}phenyl)-1,2-oxazol-3-yl]-2-{2-[(1S)-1-hydroxyethyl]-1H-imidazol-1-yl}ethan-1-ol], for which, in experiment [1], the IC50 was 259 nM. In addition, the MIC in experiment [2] stood at 4 µg/mL (≈ 8.92 µM); in experiment [3] it was 2 µg/mL (≈ 4.46 µM); in experiment [4], 1 µg/mL (≈ 2.23 µM).

`C[C@H](O)c1nccn1Cc1cc(-c2ccc(C#C[C@@H]3[C@H]4CN(C(CO)CO)C[C@@H]34)cc2)on1` [Compound 56, 2-[(1R,5S,6s)-6-({4-[3-((2-[(1S)-1-hydroxyethyl]-1H-imidazol-1-yl}methyl)-1,2-oxazol-5-yl]phenyl}ethynyl)-3-azabicyclo[3.1.0]hexan-3-yl]propan-1,3-diol]: in experiment [1], the IC50 was found to be 83.7 nM. The results for the MIC in experiment [2], in experiment [3] and in experiment [4] were 8 µg/mL (≈ 17.8 µM), 2 µg/mL (≈ 4.46 µM) and 1 µg/mL (≈ 2.23 µM), respectively.

As for `C[C@H](O)c1nccn1Cc1cc(-c2ccc(C#CC3C4COCC34)cc2)on1` (stereo partly drawn) [Compound 46, (1S)-1-{1-[(5-{4-[(3-oxabicyclo[3.1.0]hexan-6-yl)ethynyl]phenyl}-1,2-oxazol-3-yl)methyl]-1H-imidazol-2-yl} ethan-1-ol], the IC50 in experiment [1] was determined as 13.4 nM. The MIC was greater than 32 µg/mL in experiment [2], 0.12 µg/mL (≈ 0.32 µM) in experiment [3] and 0.12 µg/mL (≈ 0.32 µM) in experiment [4].

`C[C@H](O)c1nccn1Cc1cc(-c2ccc(C#C[C@@H]3[C@H]4CN(C=O)C[C@@H]34)cc2)no1` [Compound 102, (1R,5S,6s)-6-({4-[5-({2-[(1S)-1-hydroxyethyl]-1H-imidazol-1-yl}methyl)-1,2-oxazol-3-yl]phenyl}ethynyl)-3-azabicyclo[3.1.0]hexane-3-carbaldehyde]: the IC50 in experiment [1] stood at 103 nM. Besides, the MIC was determined as 64 µg/mL (≈ 159 µM) in experiment [2], 1 µg/mL (≈ 2.48 µM) in experiment [3] and 0.5 µg/mL (≈ 1.24 µM) in experiment [4].

As for `C[C@H](O)c1nccn1Cc1cc(-c2ccc(C#C[C@@H]3[C@H]4CN(CCCC(=O)O)C[C@@H]34)cc2)no1` [Compound 111, 4-[(1R,5S,6s)-6-({4-[5-({2-[(1S)-1-hydroxyethyl]-1H-imidazol-1-yl}methyl)-1,2-oxazol-3-yl]phenyl}ethynyl)-3-azabicyclo[3.1.0]hexan-3-yl]butanoic acid], the IC50 in experiment [1] stood at 197 nM. In addition, the MIC worked out at 8 µg/mL (≈ 17.4 µM) in experiment [2], 4 µg/mL (≈ 8.69 µM) in experiment [3] and 1 µg/mL (≈ 2.17 µM) in experiment [4].

For the compound `C[C@H](O)c1nccn1Cc1cc(-c2ccc(C#CC(C)(C)O)cc2)on1` [Compound 32, 4-(4-[3-({2-[(1S)-1-hydroxyethyl]-1H-imidazol-1-yl}methyl)-1,2-oxazol-5-yl]phenyl}-2-methylbut-3-yn-2-ol], the IC50 in experiment [1] amounted to 335 nM. Besides, the MIC in experiment [2] was greater than 128 µg/mL; in experiment [3] it was 16 µg/mL (≈ 45.5 µM); in experiment [4], 8 µg/mL (≈ 22.8 µM).

`C[C@H](O)c1nccn1Cc1cc(-c2ccc(C#C[C@@H]3[C@H]4CN(C(=O)CCC(=O)O)C[C@@H]34)cc2)on1` [Compound 95, 4-[(1R,5S,6s)-6-({4-[3-({2-[(1S)-1-hydroxyethyl]-1H-imidazol-1-yl}methyl)-1,2-oxazol-5-yl]phenyl}ethynyl)-3-azabicyclo[3.1.0]hexan-3-yl]-4-oxobutanoic acid]: the IC50 in experiment [1] is 134 nM. Also, the MIC in experiment [2] is 16 µg/mL (≈ 33.7 µM); in experiment [3], 4 µg/mL (≈ 8.43 µM); in experiment [4] it was 2 µg/mL (≈ 4.21 µM).

Take `C[C@H](O)c1nccn1Cc1cc(-c2ccc(C#CC3CC(NC4CC4)C3)cc2)on1` (stereo partly drawn) [Compound 98, (1S)-1-(1-{[5-(4-{[3-(cyclopropylamino)cyclobutyl]ethynyl}phenyl)-1,2-oxazol-3-yl]methyl}-1H-imidazol-2-yl)ethan-1-ol]: in experiment [1], the IC50 stood at 51.4 nM. The MIC in experiment [2] came out at 16 µg/mL (≈ 39.8 µM); in experiment [3], 0.5 µg/mL (≈ 1.24 µM); in experiment [4], 0.25 µg/mL (≈ 0.621 µM).

As to `C[C@H](O)c1nccn1Cc1cc(-c2ccc(C#CC3CN(C(=O)OC(C)(C)C)C3)cc2)on1` [Compound 68, tert-butyl 3-({4-[3-({2-[(1S)-1-hydroxyethyl]-1H-imidazol-1-yl}methyl)-1,2-oxazol-5-yl]phenyl}ethynyl)azetidine-1-carboxylate], the half-inhibitory concentration (IC50) in experiment [1] worked out at 13.6 nM. In addition, the values for the MIC in experiment [2], in experiment [3] and in experiment [4] were 32 µg/mL (≈ 71.3 µM), 4 µg/mL (≈ 8.92 µM) and 2 µg/mL (≈ 4.46 µM), respectively.

`C[C@H](O)c1nccn1Cc1cc(-c2ccc(C#C[C@@H]3[C@H]4CN(C(=O)C(N)=O)C[C@@H]34)cc2)on1` [Compound 107, 2-[(1R,5S,6s)-6-((4-[3-((2-[(1S)-1-hydroxyethyl]-1H-imidazol-1-yl}methyl)-1,2-oxazol-5-yl]phenyl}ethynyl)-3-azabicyclo[3.1.0]hexan-3-yl]-2-oxoacetamide]: the IC50 in experiment [1] came to 78.6 nM. Besides, the MIC was 8 µg/mL (≈ 18 µM) in experiment [2], 1 µg/mL (≈ 2.24 µM) in experiment [3] and 2 µg/mL (≈ 4.49 µM) in experiment [4].

For `CC(O)CN1C[C@@H]2[C@@H](C#Cc3ccc(-c4cc(Cn5ccnc5[C@H](C)O)no4)cc3)[C@@H]2C1` (stereo partly drawn) [Compound 55, 1-[(1R,5S,6s)-6-({4-[3-({2-[(1S)-1-hydroxyethyl]-1H-imidazol-1-yl}methyl)-1,2-oxazol-5-yl]phenyl}ethynyl)-3-azabicyclo[3.1.0]hexan-3-yl]propan-2-ol], in experiment [1], the IC50 is 97.7 nM. Besides, the MIC in experiment [2] came to 16 µg/mL (≈ 37 µM); in experiment [3], 1 µg/mL (≈ 2.31 µM); in experiment [4], 0.5 µg/mL (≈ 1.16 µM).

On to `CNCCC(=O)N1C[C@@H]2[C@@H](C#Cc3ccc(-c4cc(Cn5ccnc5[C@H](C)O)no4)cc3)[C@@H]2C1` [Compound 63, 1-[(1R,5S,6s)-6-({4-[3-({2-[(1S)-1-hydroxyethyl]-1H-imidazol-1-yl}methyl)-1,2-oxazol-5-yl]phenyl}ethynyl)-3-azabicyclo[3.1.0]hexan-3-yl]-3-(methylamino)propan-1-one], for which, in experiment [1], the IC50 turned out to be 105 nM. The MIC stood at 8 µg/mL (≈ 17.4 µM) in experiment [2], 16 µg/mL (≈ 34.8 µM) in experiment [3] and 8 µg/mL (≈ 17.4 µM) in experiment [4].
